Measurements published in patent US20110243855A1, “METHOD AND IMAGING MEDIUM FOR USE IN THE METHOD” (priority 2007, published 2011).

How the values were obtained:
[1] = Solid state polarisation after DNP, followed by solid state 13C-NMR; assay type: physicochemical; details: DNP at 1.2 K, 3.35 T, microwave 93.89 GHz, trityl radical and Gd-chelate
Description: The level of polarisation may for instance be determined by solid state ^13C-NMR measurements in solid hyperpolarised ^13C-acetate, e.g. solid hyperpolarised ^13C-acetate obtained by dynamic nuclear polarisation (DNP) of ^13C-acetate. The solid state ^13C-NMR measurement preferably consists of a simple pulse-acquire NMR sequence using a low flip angle. The signal intensity of the hyperpolarised ^13C-acetate in the NMR spectrum is compared with signal intensity of ^13C-acetate in a NMR spectrum acquired before the polarisation process. The level of polarisation is then calculated from the ratio of the signal intensities of before and after polarisation.
The probe is inserted into the probe-retaining container, submerged in the liquid helium and irradiated with microwaves. The microwave frequency may be determined from the EPR line of the DNP agent, which depends on the magnetic field of the magnet as 28.0 GHz/T. The optimal microwave frequency may be determined by adjusting the frequency for maximal NMR signal. Preferably, the optimal microwave frequency is in the about 94 GHz for a magnet charged to 3.35 T, 110 GHz for a magnet charged to 4 T, 140 GHz for a magnet charged to 5 T and 200 GHz for a magnet charged to 7 T. The power may be chosen between 50 and 200 mW, dependent on the probe size. The level of polarisation may be monitored as earlier described by for instance acquiring solid state ^13C-NMR signals of the probe during microwave irradiation. Generally, a saturation curve is obtained in a graph showing NMR signal vs. time. […] A solid state ^13C-NMR measurement suitably consists of a simple pulse-acquire NMR sequence using a low flip angle. […] The polarisation is then calculated from the ratio of the signal intensities before and after DNP.
To a micro test tube was added sodium ^13C1-acetate (Aldrich, 24.9 mg, 0.30 mmol) and 16 μl water. […] Polarisation was followed by solid state ^13C-NMR and the solid state polarisation was determined to be more than 20%. […]

[2] = Liquid state polarisation of the dissolved imaging medium by liquid state 13C-NMR; assay type: physicochemical; details: for liquid state polarisation: liquid state 13C-NMR at 400 MHz, after 75 min DNP, dissolved in phosphate buffer pH 7, 50 mM
Experimental: In a similar way, the level of polarisation for dissolved hyperpolarised ^13C-acetate may be determined by liquid state NMR measurements. Again the signal intensity of the dissolved hyperpolarised ^13C-acetate is compared with the signal intensity of the dissolved ^13C-acetate before polarisation. The level of polarisation is then calculated from the ratio of the signal intensities of ^13C-acetate before and after polarisation. Hyperpolarisation of NMR active ^13C-nuclei may be achieved by different methods which are for instance described in described in WO-A-98/30918, WO-A-99/24080 and WO-A-99/35508, and which all are incorporated herein by reference and hyperpolarisation methods known in the art are polarisation transfer from a noble gas, “brute force”, spin refrigeration, the parahydrogen method and dynamic nuclear polarisation (DNP).
(§1) After 75 minutes of dynamic nuclear polarisation, the obtained frozen polarised composition was dissolved in 6 ml phosphate buffer (20 mM, pH 7, 100 mg/l EDTA, 0.9% NaCl). The pH of the final solution containing the dissolved composition was 7.3±0.1. The sodium ^13C1-acetate concentration in said final solution was 50 mM.
Liquid state polarisation was determined by liquid state ^13C-NMR at 400 MHz to be 19%.
as §1, with “TRIS-^13C1-acetate-d3” for “sodium ^13C1-acetate”
Liquid state polarisation was determined by liquid state ^13C-NMR at 400 MHz to be 32%.

[3] = tested on: mouse myocardium; assay: In vivo 13C-MR spectroscopy in mice (heart), conversion of hyperpolarised 13C-acetate to 13C-acetyl-CoA and 13C-acetylcarnitine; design: species or system C57Bl/6 mouse
Experimental: 200 μl of an imaging medium which was prepared as described in Example 3a was injected into a C57Bl/6 mouse over a time period of 6 s. The TRIS-^13C1-acetate concentration in said imaging medium was 75 mM and the polarisation was 20% at the time of injection. A ^13C-surface coil (diameter 12 mm) was placed over the mouse myocardium. A rat ^1H-body coil was used for anatomical reference images and localised shimming. ^13C-MR spectroscopy was carried out with a 2.4 T Bruker spectrometer. A dynamic set of ^13C-MR spectra (in total 30) was acquired every 3 s with a 30 degree RF pulse. From this experiment a ^13C1-acetylcarnitine signal build-up over the time of the experiment was clearly seen (FIG. 1).
(§2) 200 μl of an imaging medium which was prepared as described in Example 3a was injected into a C57Bl/6 mouse over a time period of 6 s. The TRIS-^13C1-acetate concentration in said imaging medium was approx. 50 mM. In both experiments (n=2) a ^13C-surface coil (diameter 12 mm) was placed over the mouse myocardium and ^13C-MR spectroscopy was carried out in a 2.4 T Bruker spectrometer. A spectrum was acquired 10 s after the imaging medium had been injected with a 90 degree RF pulse. […] The ratio of ^13C1-acetylcarnitine to ^13C1-acetyl-CoA was roughly 3 times higher in the heart than in the liver, see Example 6.

[4] = tested on: mouse liver; assay: In vivo 13C-MR spectroscopy in mice (liver), conversion of hyperpolarised 13C-acetate to 13C-acetyl-CoA and 13C-acetylcarnitine; design: species or system C57Bl/6 mouse; details: 200 μl of approx. 50 mM, spectrum 10 s after injection, 90 degree pulse, n=2 (FIG. 2, 3)
Experimental: as §2, with “liver” for “myocardium”, “lower” for “higher”, “5.” for “6.”

For `NC(CO)(CO)CO.[2H]C([2H])([2H])[13C](=O)O` [TRIS-^13C1-acetate-d3], which solid state polarisation [1] is on record?
Its solid state polarisation is “more than 25%”.

And the liquid state polarisation [2]?
The liquid state polarisation was 32%.

For `C[13C](=O)O.NC(CO)(CO)CO` [TRIS-^13C1-acetate], which solid state polarisation [1] is on record?
The solid state polarisation was “more than 25%”.

What about the “polarisation at the time of injection” value ([2]; imaging medium 75 mM, at the time of injection into mouse) of the same compound?
Its value is 20%.

And the “13C1-acetylcarnitine signal build-up over the time of the experiment” value ([3]; 200 μl of 75 mM injected over 6 s, 30 spectra every 3 s, 30 degree pulse, 2.4 T (FIG. 1))?
The value was “clearly seen”.

What about the “identification of 13C1-acetyl-CoA and 13C1-acetylcarnitine” value ([3]; 200 μl of approx. 50 mM, spectrum 10 s after injection, 90 degree pulse, n=2 (FIG. 2, 3)) of the same compound?
The value was “could be identified”.

And the “identification of 13C1-acetyl-CoA and 13C1-acetylcarnitine” value [4]?
The value was “could be identified”.

Which results are given for `C[13C](=O)[O-].[Na+]` [sodium ^13C1-acetate]?
solid state polarisation [1]: more than 20%; liquid state polarisation [2]: 19%
